Measured values reported in patent US12116368B2, “Pyrrolo[2,3-d]pyrimidine tosylate salt, crystalline form thereof and manufacturing process and intermediates thereto” (Pfizer Inc., priority 2018, dated 2024).
“And” between values parts separate entries of the source, which are not always exact repeats. Equal entries are not always repeated.

Test: Solid state stability under accelerated stability conditions (70° C./75% RH, one week), monitoring purity
Format: physicochemical
Settings: for Initial Purity: API purity before the accelerated stability stress test; for Final Purity (post stress test): after one week at 70° C./75% RH, solid state; for Recommended storage condition for use as an API: assigned from the accelerated stability result; for Solid state stability compared with amorphous free base and malonate salt: accelerated stability conditions 70° C./75% RH, one week
Protocol: The solid state stability is monitored using accelerated stability conditions (70° C./75% RH) for one week and then monitoring appearance, purity and form change. These accelerated conditions are used to assign an initial use period for the API.

Row | SMILES | Initial Purity | Initial Purity (listed as malonate salt) | Final Purity (post stress test) | Final Purity (post stress test) (listed as malonate salt) | Recommended storage condition for use as an API | Solid state stability compared with amorphous free base and malonate salt
1 | C=CC(=O)N1C[C@H](Nc2ncnc3[nH]ccc23)CC[C@@H]1C.O=C(O)CC(=O)O [Malonate salt, 1-((2S,5R)-5-((7H-Pyrrolo[2,3-d]pyrimidin-4-yl)amino)-2-methyl-piperidin-1-yl)prop-2-en-1-one Malonic Acid Salt (Form 1)] | 99.5% | 99.5% | 81.6% | 81.6% | would require refrigeration | 
2 | C=CC(=O)N1C[C@H](Nc2ncnc3[nH]ccc23)CC[C@@H]1C.O=P(O)(O)O [Phosphate salt, 1-((2S,5R)-5-((7H-Pyrrolo[2,3-d]pyrimidin-4-yl)amino)-2-meth-ylpiperidin-1-yl)prop-2-en-1-one Phosphoric Acid Salt (Form A)] | 99.6% |  | 99.5% |  |  | significantly improved
3 | C=CC(=O)N1C[C@H](Nc2ncnc3[nH]ccc23)CC[C@@H]1C [Amorphous Free base, 1-((2S,5R)-5-((7H-Pyrrolo[2,3-d]pyrimidin-4-yl)amino)-2-methylpiperidin-1-yl)prop-2-en-1-one] | 99.3% |  | 41.3& % |  |  | 
4 | C=CC(=O)N1C[C@H](Nc2ncnc3[nH]ccc23)CC[C@@H]1C.Cc1ccc(S(=O)(=O)O)cc1 [Tosylate salt, 1-((2S,5R)-5-((7H-Pyrrolo[2,3-d]pyrimidin-4-yl)amino)-2-meth-ylpiperidin-1-yl)prop-2-en-1-one p-Toluenesulfonic Acid Salt (Form 1)] | 99.1% and 99.6% |  | 97.7% and 99.6% |  | would not require refrigerated storage conditions | significantly improved
